Data on eleven molecules can be found in ChEMBL document CHEMBL1201862, “PubChem BioAssay data set” (2004).

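Growth conditions: 96-well plates. Treatment: test compound, 48 hours, 5 concentrations. Analysis: linear interpolation between bracketing concentrations; unreached endpoints set to highest concentration. GI50 marks 50% less growth.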 Calls of active or inactive are those of the source. Cut-off read from the data, not from the text of the source: active = GI50 up to about 1.1 µM and inactive = higher. Bounds are passed on as bounds.

Some test systems named below: BT-549; CAKI-1; COLO 205; DU-145; MDA-MB-231; Malme-3M; NCI/ADR-RES; OVCAR-4; OVCAR-5; PC-3; SF-268; SK-MEL-2; SK-MEL-5; SN12C; SW-620; T47D; TK-10; UACC-62; M14; SK-OV-3.
Common to all, as to experiment: inhibition of tumour cell growth, NCI panel, 48 h

For the molecule `COc1cccc(-c2cc(O)c3cc(N4CCOCC4)ccc3n2)c1`, the GI50 with BT-549 was 0.964 µM (active); in the assay with CAKI-1, 0.0426 µM (active); in the assay on COLO 205 it was 0.0204 µM (active); with DU-145 it was 0.038 µM (active); with MDA-MB-231, 0.13 µM (active); in the assay with Malme-3M, 0.0131 µM (active). For the same molecule, the GI50 in the assay with NCI/ADR-RES was 0.0845 µM (active); in the assay with OVCAR-4 it was 6.76 µM (inactive); with OVCAR-5, 0.151 µM (active); with PC-3, 0.0364 µM (active); with SF-268 it was 0.0552 µM (active); with SK-MEL-2 it was 0.0313 µM (active). Moreover, the GI50 is 0.0231 µM (active) in the assay with SK-MEL-5; 0.0678 µM (active) in the assay with SN12C; 0.0324 µM (active) in the assay on SW-620; > 10 µM (inactive) in the assay on T47D; 4.26 µM (inactive) in the assay with TK-10; 0.0258 µM (active) in the assay on UACC-62.
For `C=CCc1cc(-c2n[nH]c(=S)[nH]2)ccc1N/N=N/c1ccc(C(=O)O)cc1`, the GI50 in the assay with BT-549 was 27.2 µM (inactive); with CAKI-1 it was > 100 µM (inactive); in the assay with COLO 205, 22.6 µM (inactive); in the assay with DU-145, > 100 µM (inactive); with M14, > 100 µM (inactive); with MDA-MB-231, > 100 µM (inactive). Moreover, the GI50 is 51.6 µM (inactive) in the assay on Malme-3M; > 100 µM (inactive) with NCI/ADR-RES; 44.7 µM (inactive) in the assay with OVCAR-4; > 100 µM (inactive) in the assay with OVCAR-5; > 100 µM (inactive) with PC-3; 49.7 µM (inactive) with SF-268. Moreover, the GI50 with SK-MEL-2 was 58.1 µM (inactive); with SK-MEL-5 it was 16.7 µM (inactive); with SK-OV-3, > 100 µM (inactive); with SN12C it was > 100 µM (inactive); with SW-620, > 100 µM (inactive); in the assay with T47D it was 24 µM (inactive). The GI50 in the assay on TK-10 was > 100 µM (inactive).
On to `COc1ccc2[nH]c(S(=O)(=O)N3CC(CCl)c4ccc(N)cc43)cc2c1` (centres undefined), for which the GI50 in the assay with BT-549 was 6.55 µM (inactive); in the assay with CAKI-1, 0.0254 µM (active); in the assay on COLO 205 it was 4.42 µM (inactive); in the assay on DU-145, 0.429 µM (active); with M14 it was 0.0568 µM (active); with MDA-MB-231, 0.239 µM (active). For the same molecule, the GI50 in the assay with Malme-3M was 0.0984 µM (active); with NCI/ADR-RES, 0.0624 µM (active); in the assay on OVCAR-4, 2.16 µM (inactive); in the assay with OVCAR-5 it was 10 µM (inactive); in the assay with PC-3, 0.0973 µM (active); in the assay on SF-268, 0.0685 µM (active). The GI50 in the assay on SK-MEL-5 is < 0.0157 µM (active); in the assay with SK-OV-3, 0.208 µM (active); with SN12C it was 0.32 µM (active); in the assay on SW-620, 0.0358 µM (active); in the assay on T47D it was 34.8 µM (inactive); with TK-10 it was 20.6 µM (inactive). Moreover, the GI50 with UACC-62 is 0.0773 µM (active).
Consider `Cc1nn(C(=O)c2ccncc2)c2c1C(c1ccc(Cl)cc1)SC(=N)N2` (centres undefined), for which the GI50 in the assay with BT-549, in the assay on CAKI-1, in the assay on COLO 205, in the assay with DU-145, in the assay on M14 and with MDA-MB-231 was > 10 µM (inactive) each time. Also, the GI50 in the assay with Malme-3M, in the assay on NCI/ADR-RES, in the assay on OVCAR-4, with OVCAR-5, with PC-3 and in the assay on SF-268 was > 10 µM (inactive) in each case. In addition, the GI50 with SK-MEL-2, in the assay with SK-MEL-5, in the assay on SN12C, in the assay with SW-620, in the assay with T47D and in the assay with TK-10 was > 10 µM (inactive) in each case. For the same molecule, in the assay with UACC-62, the GI50 was > 10 µM (inactive).
Consider `Cc1cc(C)c(S(=O)(=O)N[C@@H](/C=C(\Br)CO)C(C)C)c(C)c1`, for which the GI50 in the assay on BT-549 was 40.3 µM (inactive); in the assay with CAKI-1, 33.2 µM (inactive); in the assay on COLO 205 it was 15.8 µM (inactive); in the assay with DU-145, 34.5 µM (inactive); in the assay on M14 it was 30.5 µM (inactive); in the assay with MDA-MB-231 it was 23.6 µM (inactive). Further, the GI50 with Malme-3M was 21.5 µM (inactive); in the assay on NCI/ADR-RES it was 36.5 µM (inactive); in the assay on OVCAR-5 it was 34.3 µM (inactive); in the assay on PC-3, 17.2 µM (inactive); in the assay with SF-268, 30.7 µM (inactive); in the assay on SK-MEL-2, 16.1 µM (inactive). The GI50 with SK-MEL-5 is 15.8 µM (inactive); with SK-OV-3, 50.5 µM (inactive); in the assay on SN12C it was 16.8 µM (inactive); in the assay on SW-620, 27 µM (inactive); in the assay with T47D, 25.9 µM (inactive); in the assay with TK-10 it was 34.5 µM (inactive). The GI50 with UACC-62 was 13.2 µM (inactive).
Consider `CCOC(=O)c1nnn(CCCCO)c1C(=O)OCC`, for which the GI50 in the assay with BT-549, with CAKI-1, in the assay on COLO 205, in the assay with DU-145, in the assay on MDA-MB-231 and in the assay with Malme-3M was > 100 µM (inactive) in each case. For the same molecule, the GI50 in the assay with NCI/ADR-RES, in the assay with OVCAR-4, with PC-3, with SF-268, with SK-MEL-2 and in the assay on SK-MEL-5 was > 100 µM (inactive) each time. In addition, the GI50 with SN12C, with SW-620, with T47D, with TK-10 and with UACC-62 was > 100 µM (inactive) throughout.
With `Cc1c(NC(=O)CSC(=S)N2CCN(Cc3ccccc3)CC2)c(=O)n(-c2ccccc2)n1C`, the GI50 in the assay with BT-549, with CAKI-1, in the assay on COLO 205, in the assay on DU-145, in the assay with M14 and with MDA-MB-231 was > 100 µM (inactive) each time. The GI50 with Malme-3M, in the assay on NCI/ADR-RES, with OVCAR-4, with OVCAR-5, with PC-3 and in the assay with SF-268 was > 100 µM (inactive) throughout. Besides, the GI50 with SK-MEL-2, in the assay on SK-MEL-5, in the assay on SK-OV-3, in the assay with SN12C, with SW-620 and with T47D was > 100 µM (inactive) each time. Further, in the assay on TK-10, the GI50 is > 100 µM (inactive).
For `COc1cc([C@H]2Oc3c(OC)cc(CCCO)cc3[C@@H]2CO)ccc1O` [DIHYDRODEHYDRODICONIFERY ALCOHOL], the GI50 with BT-549 is 94.4 µM (inactive); in the assay on COLO 205 it was > 100 µM (inactive); in the assay with DU-145 it was > 100 µM (inactive); in the assay on M14, > 100 µM (inactive); with MDA-MB-231, 27.2 µM (inactive); with Malme-3M, > 100 µM (inactive). The GI50 is > 100 µM (inactive) in the assay with NCI/ADR-RES; 76.4 µM (inactive) with OVCAR-4; > 100 µM (inactive) with OVCAR-5; > 100 µM (inactive) with PC-3; > 100 µM (inactive) in the assay with SF-268; > 100 µM (inactive) in the assay on SK-MEL-2. Besides, the GI50 with SK-MEL-5 was 39 µM (inactive); with SK-OV-3 it was > 100 µM (inactive); with SN12C, > 100 µM (inactive); in the assay on SW-620, > 100 µM (inactive); in the assay with T47D, 30.3 µM (inactive); in the assay with TK-10, > 100 µM (inactive). For the same molecule, the GI50 in the assay with UACC-62 is 55.3 µM (inactive).
In the case of `COc1ccc(OC)c(CC2CCc3nc(N)nc(N)c3C2)c1` (centres undefined), the GI50 in the assay with BT-549 was 0.146 µM (active); in the assay on CAKI-1 it was 27.1 µM (inactive); with COLO 205, 10.2 µM (inactive); with DU-145 it was 1.62 µM (inactive); with M14 it was 0.342 µM (active); in the assay on MDA-MB-231, 25.4 µM (inactive). For the same molecule, the GI50 is 0.0334 µM (active) in the assay with Malme-3M; 2.8 µM (inactive) in the assay with NCI/ADR-RES; 28.8 µM (inactive) in the assay with OVCAR-4; 0.51 µM (active) in the assay on OVCAR-5; 0.0316 µM (active) in the assay on PC-3; < 0.0192 µM (active) with SF-268. Moreover, the GI50 in the assay on SK-MEL-2 is 23.6 µM (inactive); with SK-MEL-5, < 0.019 µM (active); with SN12C, 14.5 µM (inactive); with SW-620 it was 0.286 µM (active); in the assay on T47D it was 20.1 µM (inactive); in the assay with TK-10 it was 8.32 µM (inactive). The GI50 in the assay with UACC-62 was < 0.0133 µM (active).
In the case of `CC1(C)N=C(N)N=C(N)N1CCCCc1ccccc1`, the GI50 in the assay with BT-549 is 2.16 µM (inactive); in the assay on CAKI-1, 7.94 µM (inactive); with COLO 205 it was 0.433 µM (active); in the assay on DU-145, 3.57 µM (inactive); in the assay with M14 it was 0.181 µM (active); with MDA-MB-231, > 64.9 µM (inactive). In addition, the GI50 with Malme-3M is 0.282 µM (active); in the assay on NCI/ADR-RES, > 90.2 µM (inactive); with OVCAR-4 it was 17.3 µM (inactive); with OVCAR-5, 1.99 µM (inactive); in the assay with PC-3, 9.51 µM (inactive); in the assay with SF-268, < 0.025 µM (active). Also, the GI50 is > 32.9 µM (inactive) in the assay with SK-MEL-2; 0.59 µM (active) in the assay on SK-MEL-5; 0.82 µM (active) with SN12C; 10.4 µM (inactive) in the assay on T47D; 1.19 µM (inactive) with TK-10; 0.453 µM (active) in the assay on UACC-62.
For `CC(=O)OCC12C(OC(C)=O)C[C@@H](C)C3(CC(c4ccoc4)OC3=O)C1CCC(O)C21CO1` (some centres undefined), the GI50 in the assay with BT-549, with CAKI-1, in the assay with COLO 205, in the assay on DU-145, in the assay with M14 and with MDA-MB-231 was > 100 µM (inactive) each time. Moreover, the GI50 in the assay on Malme-3M, with NCI/ADR-RES, with OVCAR-4, in the assay on OVCAR-5, in the assay on PC-3 and with SF-268 was > 100 µM (inactive) throughout. Moreover, the GI50 with SK-MEL-2 is > 100 µM (inactive); in the assay with SK-MEL-5 it was > 100 µM (inactive); in the assay on SN12C, > 100 µM (inactive); in the assay with T47D, 2.82 µM (inactive); with TK-10, > 100 µM (inactive); in the assay on UACC-62, > 100 µM (inactive).
